Source: patent US20240052316A1, “STEM CELL PRIMING COMPOSITION AND PRIMED STEM CELL” (SCM LIFESCIENCE CO., LTD., priority 2020, published 2024)

Test system: IDO and TSG6
Test: qRT-PCR of IDO and TSG6 expression in primed mesenchymal stem cells (joint statements)
Format: cell-based
Details: 24 hours; for expression of IDO and TSG6 compared to untreated control group 0: Table 1 groups, FIG. 4; for lowest effective concentration capable of inducing significantly increased expression of both TSG6 and IDO: tested 5, 10, 20 ng/ml (TNF-α, IFN-γ) and 10, 20, 40 ng/ml (IFN-α), FIGS. 1-3
Procedure: In a 37° C. and 5% CO2 incubator, mesenchymal stem cells in a storage state (LN2 tank storage) were thawed and cultured, and at this time, the cells were cultured in a medium (DMEM, alpha-MEM) containing 10% FBS or 4% hPL until proliferated to a cell confluence of about 80%. The cultured mesenchymal stem cells were seeded in a 100 mm dish, and treated with candidate substances for reinforcing the functions of the mesenchymal stem cells for 24 hours, and then the concentrations of primary candidate substances for reinforcing the functions were set.
TNF-α and IFN-γIFN-α were selected as the primary candidate substances, and in order to confirm the lowest effective concentration capable of increasing the expression of TNFα-stimulated gene-6 (TSG6) and indoleamine 2,3-dioxygenase (IDO) to confirm the reinforced functions, the stem cells were treated with 5, 10, and 20 ng/ml of TNF-α, 5, 10, and 20 ng/ml of IFN-γ, and 10, 20, and 40 ng/ml of IFN-α, respectively, and changes in expression of TSG6 and IDO were confirmed.
The IDO was known as an immunomodulatory factor that inhibited the proliferation of immune cells such as T cells by converting tryptophan, which was essential for T cell proliferation, into kynurenine, and the TSG6 was known as an anti-inflammatory regulator secreted by mesenchymal stem cells. After culturing the stem cells, total RNA was isolated using TRIzol (Invitrogen), and then cDNA was synthesized from total RNA using PrimeScriptTMRT reagent Kit with gDNA Eraser (TaKaRa), and qRT-PCR was performed. The results of TSG6 and IDO according to the concentration of each candidate substance were illustrated in FIGS. 1, 2 and 3.
Through Example 1, candidate substances and concentration combinations thereof selected to search for more functionally reinforced compositions based on the candidate substances and the lowest effective concentrations confirmed to induce the reinforced functions of stem cells were set as shown in Table 1. Mesenchymal stem cells were treated with the candidate combinations described in Table 1 below for 24 hours, and the stem cells were cultured as in Example 1, and then total RNA was isolated using TRIzol (Invitrogen). Then, qRT-PCR was performed by synthesizing cDNA from total RNA using the PrimeScript™ RT reagent Kit with gDNA Eraser (TaKaRa).
Vitamins were known to improve the proliferative ability of stem cells and maintain the stemness of stem cells when added during a stem cell culture process. Accordingly, various vitamins were treated in the stem cell culture process, and experiments were performed to confirm whether or not vitamins could achieve anti-inflammatory and immune function reinforcing effects of stem cells. Specifically, the stem cells were treated with various types of vitamins shown in Table 2 according to the method described in Example 1, and the results of confirming changes in expression of IDO and TSG6 according to treatment with each candidate substance were illustrated in FIG. 5.

Substance	expression of IDO and TSG6 compared to untreated control group 0	lowest effective concentration capable of inducing significantly increased expression of both TSG6 and IDO [ng/mL]
TNF-α	increased expression of IDO and TSG6	10
IFN-γ: cytokine, primary candidate substance for priming stem cells, 10 ng/ml	increased expression of IDO and TSG6	10
IFN-α	increased expression of IDO and TSG6	20
